Test results published in BindingDB's records for doi:10.1016/s0014-2999(98)00246-5 (The Royal Danish School of Pharmacy, 1998).
pKi: −log10 of the molar value.

Key:
[1] = target: Metabotropic glutamate receptor 5 (Rattus norvegicus, UniProt P31424)
[2] = target: Metabotropic glutamate receptor 4 (Rattus norvegicus, UniProt P31423)
[3] = target: Metabotropic glutamate receptor 2 (Homo sapiens, UniProt Q14416)
[4] = target: Metabotropic glutamate receptor 1 (Rattus norvegicus, UniProt P23385)

Measured: pKi

Chain of Metabotropic glutamate receptor 2 (Q14416 whole entry): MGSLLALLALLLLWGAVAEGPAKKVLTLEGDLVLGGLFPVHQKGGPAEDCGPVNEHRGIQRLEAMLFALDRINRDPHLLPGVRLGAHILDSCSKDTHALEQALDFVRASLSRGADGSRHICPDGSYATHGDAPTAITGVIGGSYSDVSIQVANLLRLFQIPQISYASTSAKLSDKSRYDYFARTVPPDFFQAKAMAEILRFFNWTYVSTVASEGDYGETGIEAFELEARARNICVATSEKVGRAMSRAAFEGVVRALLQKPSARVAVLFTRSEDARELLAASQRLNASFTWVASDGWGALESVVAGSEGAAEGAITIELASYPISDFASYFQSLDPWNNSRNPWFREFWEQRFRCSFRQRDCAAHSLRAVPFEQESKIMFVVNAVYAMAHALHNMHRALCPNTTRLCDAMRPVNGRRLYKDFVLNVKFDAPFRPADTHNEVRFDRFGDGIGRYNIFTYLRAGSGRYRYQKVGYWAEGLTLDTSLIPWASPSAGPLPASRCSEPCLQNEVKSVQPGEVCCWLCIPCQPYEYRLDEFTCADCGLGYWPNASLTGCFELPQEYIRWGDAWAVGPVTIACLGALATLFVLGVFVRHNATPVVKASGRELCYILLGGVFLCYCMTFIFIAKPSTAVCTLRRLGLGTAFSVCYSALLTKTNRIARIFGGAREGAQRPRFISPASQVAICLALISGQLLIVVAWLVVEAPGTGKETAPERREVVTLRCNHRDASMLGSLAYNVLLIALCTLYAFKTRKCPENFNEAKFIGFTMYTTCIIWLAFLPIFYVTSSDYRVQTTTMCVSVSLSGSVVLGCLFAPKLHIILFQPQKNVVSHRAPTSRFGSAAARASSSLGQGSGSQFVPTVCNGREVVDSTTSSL
Chain of Metabotropic glutamate receptor 1 (P23385 whole entry): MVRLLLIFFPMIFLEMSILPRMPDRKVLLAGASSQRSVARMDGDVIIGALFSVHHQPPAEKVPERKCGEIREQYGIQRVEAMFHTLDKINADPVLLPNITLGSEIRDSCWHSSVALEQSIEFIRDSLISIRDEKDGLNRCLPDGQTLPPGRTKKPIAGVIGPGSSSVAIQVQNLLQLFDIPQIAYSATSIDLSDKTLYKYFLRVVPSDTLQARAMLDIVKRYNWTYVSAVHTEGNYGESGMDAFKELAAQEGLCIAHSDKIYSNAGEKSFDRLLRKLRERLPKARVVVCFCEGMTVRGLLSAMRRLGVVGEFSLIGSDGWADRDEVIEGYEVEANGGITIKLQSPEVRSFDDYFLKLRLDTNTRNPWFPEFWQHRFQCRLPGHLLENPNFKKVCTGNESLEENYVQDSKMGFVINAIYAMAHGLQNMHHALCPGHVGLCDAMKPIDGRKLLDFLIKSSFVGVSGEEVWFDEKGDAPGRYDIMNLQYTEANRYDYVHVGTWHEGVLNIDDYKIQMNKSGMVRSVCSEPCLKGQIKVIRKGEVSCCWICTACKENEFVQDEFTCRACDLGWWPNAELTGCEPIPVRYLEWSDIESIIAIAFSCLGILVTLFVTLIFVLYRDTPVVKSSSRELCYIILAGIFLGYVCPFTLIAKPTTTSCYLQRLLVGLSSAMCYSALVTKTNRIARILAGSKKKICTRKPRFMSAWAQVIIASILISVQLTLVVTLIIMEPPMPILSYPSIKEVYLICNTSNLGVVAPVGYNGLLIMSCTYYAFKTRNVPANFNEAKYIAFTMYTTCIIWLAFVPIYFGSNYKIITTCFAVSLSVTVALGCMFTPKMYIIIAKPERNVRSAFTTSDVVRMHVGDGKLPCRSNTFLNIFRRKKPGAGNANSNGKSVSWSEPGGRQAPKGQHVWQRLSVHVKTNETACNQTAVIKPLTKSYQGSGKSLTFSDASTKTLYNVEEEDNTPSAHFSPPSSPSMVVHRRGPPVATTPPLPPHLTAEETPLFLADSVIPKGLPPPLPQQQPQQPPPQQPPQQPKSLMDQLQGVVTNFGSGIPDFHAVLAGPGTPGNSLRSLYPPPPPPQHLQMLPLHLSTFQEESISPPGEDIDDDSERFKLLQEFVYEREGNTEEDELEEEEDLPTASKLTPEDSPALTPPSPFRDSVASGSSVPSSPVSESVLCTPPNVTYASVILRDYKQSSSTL
Chain of Metabotropic glutamate receptor 4 (P31423 whole entry): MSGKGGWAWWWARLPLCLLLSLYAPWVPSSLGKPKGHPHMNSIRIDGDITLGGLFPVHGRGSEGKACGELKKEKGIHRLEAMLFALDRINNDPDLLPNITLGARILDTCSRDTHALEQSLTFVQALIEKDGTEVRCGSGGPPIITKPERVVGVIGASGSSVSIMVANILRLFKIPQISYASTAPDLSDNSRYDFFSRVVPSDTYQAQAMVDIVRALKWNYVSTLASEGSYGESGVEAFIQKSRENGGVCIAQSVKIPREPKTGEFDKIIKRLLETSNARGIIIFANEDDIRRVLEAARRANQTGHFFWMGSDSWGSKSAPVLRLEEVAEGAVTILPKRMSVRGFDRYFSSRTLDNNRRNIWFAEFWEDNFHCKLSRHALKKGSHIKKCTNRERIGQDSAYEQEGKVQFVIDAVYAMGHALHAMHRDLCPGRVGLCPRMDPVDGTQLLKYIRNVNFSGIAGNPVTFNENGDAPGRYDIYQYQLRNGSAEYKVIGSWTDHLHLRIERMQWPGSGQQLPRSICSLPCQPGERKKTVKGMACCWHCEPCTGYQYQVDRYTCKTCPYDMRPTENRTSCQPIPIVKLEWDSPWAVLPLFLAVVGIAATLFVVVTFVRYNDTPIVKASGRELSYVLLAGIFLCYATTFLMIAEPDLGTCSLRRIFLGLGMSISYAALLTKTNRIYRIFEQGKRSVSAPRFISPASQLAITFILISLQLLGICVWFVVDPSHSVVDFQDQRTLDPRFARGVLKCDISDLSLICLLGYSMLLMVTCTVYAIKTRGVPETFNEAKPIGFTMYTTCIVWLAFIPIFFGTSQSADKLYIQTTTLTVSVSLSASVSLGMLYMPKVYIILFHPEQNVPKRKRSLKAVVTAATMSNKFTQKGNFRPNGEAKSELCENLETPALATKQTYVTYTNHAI
Chain of Metabotropic glutamate receptor 5 (P31424 whole entry): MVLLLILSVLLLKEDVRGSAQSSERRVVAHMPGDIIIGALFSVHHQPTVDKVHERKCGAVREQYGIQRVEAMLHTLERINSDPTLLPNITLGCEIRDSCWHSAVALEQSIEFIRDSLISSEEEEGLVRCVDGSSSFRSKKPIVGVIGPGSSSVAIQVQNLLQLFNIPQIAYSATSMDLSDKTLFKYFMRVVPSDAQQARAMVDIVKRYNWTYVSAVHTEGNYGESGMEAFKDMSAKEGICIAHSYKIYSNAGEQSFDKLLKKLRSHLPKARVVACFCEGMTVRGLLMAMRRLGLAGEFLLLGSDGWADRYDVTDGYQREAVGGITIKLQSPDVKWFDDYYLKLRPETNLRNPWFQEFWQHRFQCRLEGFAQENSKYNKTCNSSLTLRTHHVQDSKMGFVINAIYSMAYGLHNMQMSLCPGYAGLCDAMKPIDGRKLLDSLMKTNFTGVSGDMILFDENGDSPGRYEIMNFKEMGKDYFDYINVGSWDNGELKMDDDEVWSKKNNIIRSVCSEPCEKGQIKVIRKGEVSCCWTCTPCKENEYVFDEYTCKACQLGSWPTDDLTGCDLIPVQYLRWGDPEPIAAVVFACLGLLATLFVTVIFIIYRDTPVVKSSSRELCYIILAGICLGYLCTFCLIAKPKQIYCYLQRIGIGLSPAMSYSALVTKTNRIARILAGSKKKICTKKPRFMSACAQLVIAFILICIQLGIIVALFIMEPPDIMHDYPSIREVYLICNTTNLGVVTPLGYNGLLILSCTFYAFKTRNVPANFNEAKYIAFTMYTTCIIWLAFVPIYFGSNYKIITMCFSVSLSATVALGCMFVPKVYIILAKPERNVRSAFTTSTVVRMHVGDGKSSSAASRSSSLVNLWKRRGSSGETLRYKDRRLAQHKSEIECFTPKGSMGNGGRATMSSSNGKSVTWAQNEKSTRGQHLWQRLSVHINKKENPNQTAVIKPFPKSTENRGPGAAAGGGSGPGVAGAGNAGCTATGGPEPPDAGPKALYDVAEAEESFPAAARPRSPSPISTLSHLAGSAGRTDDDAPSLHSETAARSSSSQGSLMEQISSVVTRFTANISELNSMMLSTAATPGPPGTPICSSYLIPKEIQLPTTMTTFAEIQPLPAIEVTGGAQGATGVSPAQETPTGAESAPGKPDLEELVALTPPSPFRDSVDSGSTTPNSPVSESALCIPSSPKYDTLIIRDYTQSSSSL

N[C@@H](Cc1cc(=O)[nH]o1)C(=O)O [CAS_194385]
< 5.00: [1] | [2] | [3] | [4]

N[C@H](Cc1cc(=O)[nH]o1)C(=O)O [CAS_194385]
< 5.00: [1] | [2] | [3] | [4]

NC(C(=O)O)c1cc(=O)[nH]o1 (stereo unspecified) [Amino-(3-hydroxy-isoxazol-5-yl)-acetic acid(Ibotenic acid)]
< 5.00: [1] | [2] | [4]

N[C@H](CCCC(=O)O)C(=O)O [CAS_542-32-5]
< 5.00: [1] | [2] | [3] | [4]

Cc1c(C[C@H](N)C(=O)O)o[nH]c1=O [(2S)-2-amino-3-(3-hydroxy-4-methyl-1,2-oxazol-5-yl)propanoic acid]
< 5.00: [1] | [2] | [3]

CCCCc1c(O)noc1C[C@@H](N)C(=O)O [CAS_77006-30-5]
< 5.00: [1] | [2] | [3] | [4]

N[C@@H](CCC(=O)O)C(=O)O [L-Glutamic acid]
< 5.00: [2]

N[C@H](C(=O)O)c1ccc(C(=O)O)cc1 [4-((S)-Amino-carboxy-methyl)-benzoic acid]
< 5.00: [1] | [4]

N[C@@H](Cc1o[nH]c(=O)c1Br)C(=O)O [NSC_2733518]
< 5.00: [1] | [2] | [3] | [4]

Cc1c(C[C@@H](N)C(=O)O)o[nH]c1=O [(S)-4-Methylhomoibotenic acid]
< 5.00: [1] | [2] | [3] | [4]

CCCCc1c(C[C@H](N)C(=O)O)o[nH]c1=O [(R)-Bu-HIBO]
< 5.00: [1] | [2] | [3] | [4]

N[C@H](Cc1onc(O)c1Br)C(=O)O [NSC_2733518]
< 5.00: [1] | [2] | [3] | [4]
